The target in experiment [1] is T1, FTase (Rattus norvegicus, UniProt Q02293+Q04631).
T1 construct: The two enzymes FTase and GGTase-I were purified starting from rat's brain; from tissue; host or cells: rat brain
The experiment in a line: FTase enzyme test (scintillation proximity assay). The class given is biochemical. To be noted: rat brain FTase, biotinylated lamin B peptide, [3H]farnesyl pyrophosphate, 37° C., one hour; read-out: IC50 with respect to FTase. The procedure:
The two enzymes FTase and GGTase-I were purified starting from rat's brain. After grinding and centrifuging, the supernatant is precipitated with 30% ammonium sulphate and the resulting supernatant is subjected to another precipitation with 50% ammonium sulphate. The pellet is then passed through a column of phenyl agarose and the fractions collected after elution with sodium chloride are evaluated for their enzyme content in accordance with the “scintillation proximity assay” method described hereinbelow. The fractions corresponding to one or other of the two enzymes are then combined and frozen at −80° C. until use.
The determination of the enzymatic activity of the FTase is carried out in 96-well plates by a radioactive scintillation proximity assay method. The acceptor substrate composed of the carboxy terminal sequence of lamin B (YRASNRSCAIM) coupled to biotin is incubated in the presence of the radiolabelled donor substrate ([^3H]farnesyl pyrophosphate), and of various concentrations of test compounds in dimethyl sulphoxide (DMSO). The reaction is initiated at 37° C. by adding FTase enzyme for a duration of one hour, and is then stopped with an appropriate buffer containing a suspension of beads impregnated with scintillant. […]
On the technique in general: SPA uses beads or plates that emit light when radiolabelled molecules are held near them.

Experiment [2] deals with cells transfected with v-H-ras. The experiment in a line: Cell proliferation test (MTT) on RAT2 fibroblasts transfected with v-H-ras. Particulars: Rattus norvegicus, 96 h, RAT2 transfectant, 10% serum, four days, read-out: IC50 of inhibition of growth of cells transfected by the oncogene v-H-ras. The class given is cell-based. On the procedure: a) The RAT2 line of rat fibroblasts and an appropriate transfectant for the insertion of the gene v-H-ras were used to test the effectiveness of the claimed products on cells.
The parental and transfected cells are cultured in 96-well plates for cell culture in the presence of medium containing 10% serum. Twenty four hours later, the test products are added to the same medium over a period of four days and the final quantity of cells is estimated indirectly by the cell viability method using 3-(4,5-dimethylthiazol-2-yl)-2,5-diphenyltetrazolium bromide (MTT).

We go through one molecule from US20030199530A1, “New compounds derived from quinazoline” (priority 2002, published 2003).

`CC(C)(C)OC(=O)Nc1ccc(-n2c(=O)c3ccccc3n(CC(Cc3ccccc3)Cn3ccnc3)c2=O)cc1` (centres unmarked) [Example 2, tert-Butyl 4-(1-[2-benzyl-3-(1H-imidazol-1-yl)propyl]-2,4-dioxo-1,4-dihydro-3(2H)-quinazolinyl)phenylcarbamate]: the half-maximal inhibitory concentration (IC50) in experiment [1] came to 19 nM; in experiment [2], 9 nM.

One may read the IC50 as the midpoint of a concentration-inhibition curve.
